Patent US8802678B2, “Carbonylated (aza) cyclohexanes as dopamine D3 receptor ligands” (Bioprojet, priority 2006, dated 2014)

Row | Structure (SMILES) | melting point
1 | N#CCCCC(=O)N[C@H]1CC[C@H](CCN2CCN(c3cccc(SC(F)(F)F)c3)CC2)CC1 [Example 363, 4-Cyano-N-(4-{2-[4-(3-trifluoromethylsulfanylphenyl)piperazin-1-yl]ethyl}cyclohexyl)butanamide] | 150 °C
2 | N#CCCCC(=O)N[C@H]1CC[C@H](CCN2CCN(c3cccc(C(F)F)c3)CC2)CC1 [Example 364, 4-Cyano-N-(4-{2-[4-(3-difluoromethylphenyl)piperazin-1-yl]ethyl}cyclohexyl)butanamide] | 155 °C
3 | N#CCCCC(=O)N[C@H]1CC[C@H](CCN2CCN(c3ccc4c(c3)OCO4)CC2)CC1 [Example 365, N-{4-[2-(4-Benzo[1,3]dioxol-5-ylpiperazin-1-yl)ethyl]cyclohexyl}-4-cyanobutanamide] | 189 °C
4 | N#CCCCC(=O)N[C@H]1CC[C@@H](CCN2CCN(c3cccc(C(F)(F)F)c3F)CC2)CC1 [Example 366, 4-Cyano-N-(4-{2-[4-(2-fluoro-3-trifluoromethylphenyl)piperazin-1-yl]ethyl}cyclohexyl)butanamide] | 95 °C
5 | N#CCCCC(=O)N[C@H]1CC[C@H](CCN2CCN(c3ccc(Cl)c(Cl)c3)CC2)CC1 [Example 368, 4-Cyano-N-(4-{2-[4-(3,4-dichlorophenyl)piperazin-1-yl]ethyl}cyclohexyl)butanamide] | 151 °C
6 | Cc1ccc(N2CCN(CC[C@H]3CC[C@H](NC(=O)CC#N)CC3)CC2)cc1Cl [Example 369, N-(4-{2-[4-(3-Chloro-4-methylphenyl)piperazin-1-yl]ethyl}cyclohexyl)-2-cyanoacetamide] | 220 °C
7 | N#CCC(=O)N[C@H]1CC[C@H](CCN2CCN(c3ccc(C#N)cc3)CC2)CC1 [Example 370, 2-Cyano-N-(4-{2-[4-(4-cyanophenyl)piperazin-1-yl]ethyl}cyclohexyl)acetamide] | 228 °C
8 | N#CCCCC(=O)N[C@H]1CC[C@H](CCN2CCN(c3cc(Cl)ccc3Cl)CC2)CC1 [Example 371, 4-Cyano-N-(4-{2-[4-(2,5-dichlorophenyl)piperazin-1-yl]ethyl}cyclohexyl)butanamide] | 179 °C
9 | COc1ccccc1N1CCN(CC[C@H]2CC[C@H](NC(=O)C3CC=CC3)CC2)CC1 [Example 372, Cyclopent-3-enecarboxylic acid (4-{2-[4-(2-methoxyphenyl)piperazin-1-yl]ethyl}cyclohexyl) amide] | 202 °C
10 | O=C(CC1C=CCC1)N[C@H]1CC[C@H](CCN2CCN(c3cccc(C(F)(F)F)c3)CC2)CC1 (stereo partly shown) [Example 373, 2-Cyclopent-2-enyl-N-(4-{2-[4-(3-trifluoromethylphenyl)piperazin-1-yl]ethyl}cyclohexyl)acetamide] | 154 °C
11 | N#CCCCC(=O)N[C@H]1CC[C@H](CCN2CCN(c3cc(F)c(F)c(F)c3)CC2)CC1 [Example 374, 4-Cyano-N-(4-{2-[4-(3,4,5-trifluorophenyl)piperazin-1-yl]ethyl}cyclohexyl)butanamide] | 156 °C
12 | CC(=O)c1cccc(N2CCN(CC[C@H]3CC[C@H](NC(=O)CCCC#N)CC3)CC2)c1 [Example 375] | 181 °C
13 | N#CCC(=O)N[C@H]1CC[C@H](CCN2CCN(c3ccccc3C#N)CC2)CC1 [Example 376, 2-Cyano-N-(4-{2-[4-(2-cyanophenyl)piperazin-1-yl]ethyl}cyclohexyl)acetamide] | 190 °C
14 | N#CCCCC(=O)N[C@H]1CC[C@H](CCN2CCN(c3ccccc3C#N)CC2)CC1 [Example 377, 4-Cyano-N-(4-{2-[4-(2-cyanophenyl)piperazin-1-yl]ethyl}cyclohexyl)butanamide] | 160 °C
15 | CCc1cccc(N2CCN(CC[C@H]3CC[C@H](NC(=O)C4CC=CC4)CC3)CC2)c1 [Example 378, Cyclopent-3-enecarboxylic acid (4-{2-[4-(3-ethylphenyl)piperazin-1-yl]ethyl}cyclohexyl) amide] | 185 °C
16 | Cc1cccc(N2CCN(CC[C@H]3CC[C@H](NC(=O)C4CC=CC4)CC3)CC2)c1 [Example 379, Cyclopent-3-enecarboxylic acid {4-[2-(4-m-tolylpiperazin-1-yl)ethyl]cyclohexyl}] | 200 °C
17 | Cc1cccc(N2CCN(CC[C@H]3CC[C@H](NC(=O)C4=CCCC4)CC3)CC2)c1 [Example 380, Cyclopent-1-enecarboxylic acid {4-[2-(4-m-tolylpiperazin-1-yl)ethyl]cyclohexyl} amide] | 188 °C
18 | Cc1ccc(N2CCN(CC[C@H]3CC[C@H](NC(=O)CCCC#N)CC3)CC2)cc1Cl [Example 381, N-(4-{2-[4-(3-Chloro-4-methylphenyl)piperazin-1-yl]ethyl}cyclohexyl)-4-cyanobutanamide] | 168 °C
19 | COc1ccccc1N1CCN(CC[C@H]2CC[C@H](NC(=O)CCCC#N)CC2)CC1 [Example 382, 4-Cyano-N-(4-{2-[4-(2-methoxyphenyl)piperazin-1-yl]ethyl}cyclohexyl)butanamide] | 147 °C
20 | Cc1ccc(C(F)(F)F)cc1N1CCN(CC[C@H]2CC[C@H](NC(=O)CC#N)CC2)CC1 [Example 383, 2-Cyano-N-(4-{2-[4-(2-methyl-5-trifluoromethylphenyl)piperazin-1-yl]ethyl}cyclohexyl)acetamide] | 192 °C
21 | O=C(N[C@H]1CC[C@H](CCN2CCN(c3ccc(F)cc3F)CC2)CC1)C1=CCCC1 [Example 384, Cyclopent-1-enecarboxylic acid (4-{2-[4-(2,4-difluorphenyl)-piperazin-1-yl]ethyl}cyclohexyl) amide] | 205 °C
22 | O=C(COc1ccc(F)cc1)N[C@H]1CC[C@H](CCN2CCN(c3ccc(F)cc3F)CC2)CC1 [Example 385, N-(4-{2-[4-(2,4-Difluorophenyl)piperazin-1-yl]ethyl}cyclohexyl)-2-(4-fluorophenoxy)acetamide] | 162 °C
23 | O=C(CC(F)(F)F)N[C@H]1CC[C@H](CCN2CCN(c3ccc(F)cc3F)CC2)CC1 [Example 386, N-(4-{2-[4-(2,4-Difluorophenyl)piperazin-1-yl]ethyl}cyclohexyl)-3,3,3-trifluoropropanamide] | 184 °C
24 | O=C(CC1CC=CC1)N[C@H]1CC[C@H](CCN2CCN(c3ccccc3F)CC2)CC1 [Example 387] | 188 °C
25 | Cc1ccc(C(F)(F)F)cc1N1CCN(CC[C@H]2CC[C@H](NC(=O)CCCC#N)CC2)CC1 [Example 388, 4-Cyano-N-(4-{2-[4-(2-methyl-5-trifluoromethylphenyl)piperazin-1-yl]ethyl}cyclohexyl)butyramide] | 153 °C
26 | Cc1cc(N2CCN(CC[C@H]3CC[C@H](NC(=O)CC#N)CC3)CC2)c(Cl)cc1F [Example 389, N-(4-{2-[4-(2-Chloro-4-fluoro-5-methylphenyl)piperazin-1-yl]ethyl}cyclohexyl)-2-cyanoacetamide] | 177 °C
27 | Cc1cc(N2CCN(CC[C@H]3CC[C@H](NC(=O)CCCC#N)CC3)CC2)c(Cl)cc1F [Example 390] | 158 °C
28 | COc1ccc(C)c(N2CCN(CC[C@H]3CC[C@H](NC(=O)CCCC#N)CC3)CC2)c1 [Example 391, 4-Cyano-N-(4-{2-[4-(5-methoxy-2-methylphenyl)piperazin-1-yl]ethyl}cyclohexyl)butanamide] | 170 °C
